Test results reported in patent US20090061022A1, “Pharmaceutical composition comprising arsenite for the treatment of malignancy” (priority 2004, published 2009).

What was measured:
HT29 = test: Cytotoxic activity, propidium iodide fluorescence assay, panel of 9 human cancer cell lines; assay type: cell-based; conditions: HT29 colon cancer, 3-7 days
Experimental: (§1) Three kinds of stock solutions were prepared for in vitro cytotoxic activity test. The first solution is DMSO (dimethyl sulfoxide) mixed with sodium meta-arsenite. […] The third solution is DMSO mixed with arsenic acid sodium salt. Those three solutions were diluted with culture medium (RPMI 1640). The final concentrations of DMSO in those three solutions are less than 0.3 vol %.
(§2) Nine kinds of human cancer cell lines out of six kinds of cancers were grown at 37° C. under a controlled atmosphere of 95% air and 5% CO2. The cells were grown on monolayer cultures of RPMI 1640 cell culture medium supplemented with 10% fetal calf serum.
(§3) The grown cells were harvested from exponential phase cultures by trypsinization and counted. The counted cells were placed in a plate, which has ninety six wells. Each well on the plate is in a shape of a flat-bottomed microtitre. Density of the cells in a suspension was adjusted depending on the cell line. The suspension was prepared by diluting the grown cells with the culture medium (RPMI 1640). Concentration of the cells were varied from 5×10^4 to 1×10^5 viable cells/ml. 100 μl of the suspension was placed in each well of the plate. […] Then add 50 μl of culture medium (RPMI 1640) only to 6 wells, 50 μl/well, among the 96 wells of one plate. It is called controlled. One well is filled with culture medium plus 5-FU. And another 50 μl of culture medium plus one of the stock solutions were added to each of the left 89 wells to allow cells to resume exponential growth.
(§4) The cytotoxic activity test was executed with three plates simultaneously to check reliability of the data obtained. The three plates contain the same samples of cancer cells. The three plates were then incubated for 3-7 days under the same controlled atmosphere and cell proliferation was assessed with a modified propodium iodide fluorescence assay. After thawing of the plates, fluorescence was measured using a Millipore Cytofluor 2350-microplate reader (excitation 530 nm emission 620 nm) in order to quantify the total cell number. The assay included untreated and positive controls containing 5-FU.
(§5) Growth inhibition is defined as (numbers of cancer cell alive) treated (T)/(number of cells) control (C)×100% (T/C %).

UXF 1138 = test: as above; assay type: cell-based; conditions: UXF 1138 uterine body, 3-7 days
Experimental: as §1, §2, §3, §4, §5

MEXF 514L = test: as above; assay type: cell-based; conditions: MEXF 514L melanoma, 3-7 days
Experimental: as §1, §2, §3, §4, §5

CCRF-CEM = test: as above; assay type: cell-based; conditions: CCRF-CEM leukemia, 3-7 days
Experimental: as §1, §2, §3, §4, §5

RXF 944L = test: as above; assay type: cell-based; conditions: RXF 944L renal cancer, 3-7 days
Experimental: as §1, §2, §3, §4, §5

U937 = test: as above; assay type: cell-based; conditions: U937 lymphoma, 3-7 days
Experimental: as §1, §2, §3, §4, §5

K562 = test: as above; assay type: cell-based; conditions: K562 leukemia, 3-7 days
Experimental: as §1, §2, §3, §4, §5

LXFL 529L = test: as above; assay type: cell-based; conditions: LXFL 529L NSCLC, 3-7 days
Experimental: as §1, §2, §3, §4, §5

MEXF 462NL = test: as above; assay type: cell-based; conditions: MEXF 462NL melanoma, 3-7 days
Experimental: as §1, §2, §3, §4, §5

[1] = Maximum tolerated dose assessment after daily oral gavages for 14 days in the rat; assay type: in vivo, Wistar rats; conditions: for Findings / Findings (mortality): rat; for MTD (or LD10 value): rats, oral once daily 14 days, calculated
Experimental: The objective of this oral toxicity study was to establish a MTD after repeated administration of sodium meta-arsenite to rats.
Ampoules of sodium meta-arsenite (dissolved in 10% (w/v) glucose in water) in concentrations of 1.2, 2.2, 3.8, 7.0 and 12.6 mg/ml were stored in a refrigerator in the dark. Based on the previous study, the following doses were selected: 6, 11, 19, and 35 and 63 mg/kg/day. Each dose was administered daily by oral gavages to groups of 4 male and 4 female Wistar rats for 14 days, followed by a 14-day recovery period.
Clinical signs were evaluated daily, and body weights were recorded twice weekly. Scheduled termination was performed on day 29 (after 14 days of recovery). Macroscopic examination was performed on all animals.

In the case of `O=[As][O-].[Na+]` [Sodium meta-arsenite, sodium meta-arsenite], the “T/C % at drug concentration” value (HT29; 1 μg/ml) is reported as 91%, the “T/C % at drug concentration” value (HT29; 3 μg/ml) is reported as 60% and the “T/C % at drug concentration” value (HT29; 10 μg/ml) is reported as 40%. The “T/C % at drug concentration” value (HT29; 30 μg/ml) was 22%, the “T/C % at drug concentration” value (HT29; 100 μg/ml) was 14% and the “T/C % at drug concentration” value (UXF 1138; 1 μg/ml) was 107%. The “T/C % at drug concentration” value (UXF 1138; 3 μg/ml) was 114%, the “T/C % at drug concentration” value (UXF 1138; 10 μg/ml) was 103% and the “T/C % at drug concentration” value (UXF 1138; 30 μg/ml) was 95%. For the same compound, the “T/C % at drug concentration” value (UXF 1138; 100 μg/ml) was 30%, the “T/C % at drug concentration” value (MEXF 514L; 1 μg/ml) was 120% and the “T/C % at drug concentration” value (MEXF 514L; 3 μg/ml) was 95%. For the same compound, the “T/C % at drug concentration” value (MEXF 514L; 10 μg/ml) was 98%, the “T/C % at drug concentration” value (MEXF 514L; 30 μg/ml) was 70% and the “T/C % at drug concentration” value (MEXF 514L; 100 μg/ml) was 21%. For the same compound, the “T/C % at drug concentration” value (CCRF-CEM; 1 μg/ml) was 48%, the “T/C % at drug concentration” value (CCRF-CEM; 10 μg/ml) was 43% and the “T/C % at drug concentration” value (CCRF-CEM; 100 μg/ml) was 29%. The “T/C % at drug concentration” value (RXF 944L; 1 μg/ml) was 124%, the “T/C % at drug concentration” value (RXF 944L; 3 μg/ml) was 79% and the “T/C % at drug concentration” value (RXF 944L; 10 μg/ml) was 57%. The “T/C % at drug concentration” value (RXF 944L; 30 μg/ml) was 32%, the “T/C % at drug concentration” value (RXF 944L; 100 μg/ml) was 9% and the “T/C % at drug concentration” value (U937; 1 μg/ml) was 3%. For the same compound, the “T/C % at drug concentration” value (U937; 3 μg/ml) was 3%, the “T/C % at drug concentration” value (U937; 10 μg/ml) was 2% and the “T/C % at drug concentration” value (U937; 30 μg/ml) was 2%. The “T/C % at drug concentration” value (U937; 100 μg/ml) was 1%, the “T/C % at drug concentration” value (K562; 1 μg/ml) was 51% and the “T/C % at drug concentration” value (K562; 3 μg/ml) was 15%. For the same compound, the “T/C % at drug concentration” value (K562; 10 μg/ml) was 15%, the “T/C % at drug concentration” value (K562; 30 μg/ml) was 18% and the “T/C % at drug concentration” value (K562; 100 μg/ml) was 13%. For the same compound, the “T/C % at drug concentration” value (LXFL 529L; 1 μg/ml) was 79%, the “T/C % at drug concentration” value (LXFL 529L; 3 μg/ml) was 61% and the “T/C % at drug concentration” value (LXFL 529L; 10 μg/ml) was 21%. For the same compound, the “T/C % at drug concentration” value (LXFL 529L; 30 μg/ml) was 7%, the “T/C % at drug concentration” value (LXFL 529L; 100 μg/ml) was 4% and the “T/C % at drug concentration” value (MEXF 462NL; 1 μg/ml) was 112%. For the same compound, the “T/C % at drug concentration” value (MEXF 462NL; 3 μg/ml) was 120%, the “T/C % at drug concentration” value (MEXF 462NL; 10 μg/ml) was 101% and the “T/C % at drug concentration” value (MEXF 462NL; 30 μg/ml) was 91%. For the same compound, the “T/C % at drug concentration” value (MEXF 462NL; 100 μg/ml) was 15%, the Findings ([1]; 6 mg/kg/day oral gavage 14 days) was “No findings were noted” and the Findings ([1]; 11 mg/kg/day oral gavage 14 days) was “Hunched posture was noted in one male from day 7-13 of treatment, diarrhea was observed for one male on day 6”. For the same compound, the Findings ([1]; 19 mg/kg/day oral gavage 14 days) was “Hunched posture (day 6-14 of treatment) was noted in 2 males”, the “Findings (mortality)” value ([1]; 35 mg/kg/day oral gavage 14 days) was “One male was found dead on day 13 of treatment, all females died between days 3 to 6” and the “Findings (mortality)” value ([1]; 63 mg/kg/day oral gavage 14 days) was “All animals died on days 2 to 5”. The “MTD (or LD10 value)” value ([1]; females) was 25 mg/kg/day and the “MTD (or LD10 value)” value ([1]; males) was 33 mg/kg/day.
